In ChEMBL document CHEMBL1201862, “PubChem BioAssay data set” (2004):
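Tested at 5 concentrations; 48 h exposure; 96-well plates; endpoints linearly interpolated, else capped at highest concentration. Here, GI50 denotes the concentration required for 50% inhibition of growth.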 Activity calls are given as the source filed them. Cut-off read from the data, not from the text of the source: active = GI50 up to about 1.1 µM and inactive = higher.

What was measured:
Test in all cases: DTP human tumour cell line panel, 48 h
HOP-62 = test system: HOP-62
SN12C = test system: SN12C
SNB-19 = test system: SNB-19
LOX IMVI = test system: LOX IMVI
CCRF-CEM = test system: CCRF-CEM
IGROV-1 = test system: IGROV-1
U-251 = test system: U-251
MDA-MB-435 = test system: MDA-MB-435
MCF7 = test system: MCF7
K562 = test system: K562
DU-145 = test system: DU-145
A549 = test system: A549
SK-MEL-28 = test system: SK-MEL-28
786-0 = test system: 786-0
COLO 205 = test system: COLO 205
M14 = test system: M14
NCI/ADR-RES = test system: NCI/ADR-RES
UO-31 = test system: UO-31
Hs-578T = test system: Hs-578T
T47D = test system: T47D
ACHN = test system: ACHN
NCI-H522 = test system: NCI-H522
NCI-H460 = test system: NCI-H460
HCC 2998 = test system: HCC 2998
TK-10 = test system: TK-10
BT-549 = test system: BT-549
MDA-N = test system: MDA-N
HCT-116 = test system: HCT-116
HCT-15 = test system: HCT-15
RPMI-8226 = test system: RPMI-8226
OVCAR-5 = test system: OVCAR-5
MOLT-4 = test system: MOLT-4
SK-MEL-5 = test system: SK-MEL-5
SF-268 = test system: SF-268
PC-3 = test system: PC-3
OVCAR-4 = test system: OVCAR-4
NCI-H23 = test system: NCI-H23
CAKI-1 = test system: CAKI-1
UACC-257 = test system: UACC-257
EKVX = test system: EKVX
HT-29 = test system: HT-29
HL-60 = test system: HL-60
SW-620 = test system: SW-620
Malme-3M = test system: Malme-3M
OVCAR-8 = test system: OVCAR-8
SK-OV-3 = test system: SK-OV-3
MDA-MB-231 = test system: MDA-MB-231
RXF 393 = test system: RXF 393
SNB-75 = test system: SNB-75
NCI-H226 = test system: NCI-H226
KM12 = test system: KM12
UACC-62 = test system: UACC-62
OVCAR-3 = test system: OVCAR-3
A498 = test system: A498
SF-539 = test system: SF-539
HOP-92 = test system: HOP-92
SF-295 = test system: SF-295
SR = test system: SR
SK-MEL-2 = test system: SK-MEL-2

Measured: GI50

CCn1c(SCC(=O)N/N=C/c2ccccc2)nc2ccccc2c1=O
3.87 µM: HCT-15
active: SR 478 nM
inactive: HOP-62 12.8 µM | SN12C 13.1 µM | SNB-19 18.5 µM | LOX IMVI 6.68 µM | CCRF-CEM 9.89 µM | IGROV-1 12.9 µM | U-251 18.5 µM | MDA-MB-435 2.11 µM | MCF7 4.75 µM | K562 1.87 µM | DU-145 48.2 µM | A549 4.89 µM | SK-MEL-28 39.4 µM | 786-0 7.66 µM | COLO 205 8.34 µM | M14 7.16 µM | NCI/ADR-RES 4.05 µM | UO-31 29.9 µM | Hs-578T 8.41 µM | T47D 21.7 µM | ACHN 36 µM | NCI-H522 3.7 µM | NCI-H460 2.13 µM | HCC 2998 5.22 µM | TK-10 > 55.1 µM | BT-549 17.3 µM | MDA-N 2.54 µM | HCT-116 5.42 µM | RPMI-8226 14.2 µM | OVCAR-5 > 52 µM | MOLT-4 5.14 µM | SK-MEL-5 7.94 µM | SF-268 15.8 µM | PC-3 15 µM | OVCAR-4 14.1 µM | NCI-H23 31.8 µM | CAKI-1 9.08 µM | UACC-257 21.8 µM | EKVX 26.3 µM | HT-29 4.06 µM | HL-60 4.8 µM | SW-620 1.99 µM | Malme-3M 12.5 µM | OVCAR-8 16.3 µM | SK-OV-3 17.8 µM | MDA-MB-231 14.3 µM | RXF 393 7.19 µM | SNB-75 12.8 µM | NCI-H226 10.8 µM | KM12 3.64 µM | UACC-62 5.52 µM | OVCAR-3 10 µM | A498 8.22 µM | SF-539 10.4 µM | HOP-92 26.9 µM | SF-295 4.7 µM | SK-MEL-2 11.7 µM
